Results: patent publication US11166949B2, “NURR1 activation in the treatment of metabolic disorders and as an exercise mimetic” (The Board of Regents of the University of Texas System, priority 2016, dated 2021)
Entries after “also recorded” stand apart in the source; their conditions may differ.

Legend:
[1] = test system: mice on HFD; test: Glucose tolerance test and insulin tolerance test; type: in vivo
Description: Glucose uptake and insulin tolerance. Glucose tolerance test and insulin tolerance test were performed as previously described. For glucose tolerance test, mice were fasted for 6 hr and injected intraperitoneally with a glucose solution (0.15 g/ml, 158968 from Sigma-Aldrich, St. Louis, Mo.) at 1.5 g/kg body weight. Blood glucose concentrations were measured before and 15, 30, 60 and 90 min after glucose injection. For insulin tolerance test, mice […] for 6 hours were injected intraperitoneally with insulin (Human insulin 19278 from Sigma-Aldrich, St. Louis, Mo.) at 1.0 U/kg body weight. Blood glucose concentrations were measured before and 15, 30, 60 and 90 min after insulin injection.

[2] = test system: chloroquine-resistant Plasmodium falciparum; conditions: chloroquine-resistant Plasmodium falciparum malaria infections; cited from earlier work
[3] = Metabolic cages (energy expenditure); type: in vivo; conditions: WT-HFD-AQ compared to WT mice, normalized to lean mass
[4] = target: Nurr1 (Homo sapiens, UniProt P43354); conditions: cited from earlier work
Nurr1, sequence (P43354 whole entry): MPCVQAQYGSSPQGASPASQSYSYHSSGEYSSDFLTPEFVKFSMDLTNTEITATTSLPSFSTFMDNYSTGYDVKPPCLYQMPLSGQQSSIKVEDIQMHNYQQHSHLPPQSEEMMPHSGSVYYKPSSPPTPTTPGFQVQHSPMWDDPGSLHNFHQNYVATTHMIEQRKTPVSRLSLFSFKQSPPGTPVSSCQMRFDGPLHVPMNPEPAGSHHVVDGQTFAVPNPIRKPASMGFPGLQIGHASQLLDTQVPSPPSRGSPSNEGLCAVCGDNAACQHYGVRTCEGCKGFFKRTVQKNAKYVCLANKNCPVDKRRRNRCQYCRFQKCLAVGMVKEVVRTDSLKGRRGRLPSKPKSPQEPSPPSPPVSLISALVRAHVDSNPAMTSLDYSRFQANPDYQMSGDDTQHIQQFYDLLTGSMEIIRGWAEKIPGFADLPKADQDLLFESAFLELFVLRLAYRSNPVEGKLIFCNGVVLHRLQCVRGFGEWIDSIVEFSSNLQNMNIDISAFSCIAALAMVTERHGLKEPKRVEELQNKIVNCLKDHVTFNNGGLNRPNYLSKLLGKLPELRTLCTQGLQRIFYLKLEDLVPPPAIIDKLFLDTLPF

[5] = mouse, in vivo
[6] = test system: WT mice on normal chow and HFD; test: Nurr1 agonist treatment of WT mice on normal chow and HFD: weight gain, food intake, body composition, adipose histology; type: in vivo; conditions: for weight gain: WT mice on normal chow
Description: Animals. Animals were housed in a pathogen free barrier facility with a 12 hour light/dark cycle and maintained on standard chow (2916 Teklad Global). The Nurr1 transcript was amplified from Invitrogen library with Nurr1-specific primers. Nurr1 was cloned into a plasmid containing the human skeletal muscle actin promoter and human GH (hGH) poly(A) signal. Nurr1 transgenic mice (referred as Nurr1-mTg) were backcrossed with C57/BL6J mice for more than four generations. C57BL/6J, ob/ob and db/db mice were obtained from Jackson Laboratories. Male mice were used in all experiments. For HFD (60% fat calories; D12492, Research Diet), mice were fed from the age of 5 weeks to the indicated times. Tissues were taken in the fed state except when otherwise mentioned. Drug treatments. […] Isoxazolo-pyridinone 7e (IP7e) was purchased from Millipore and dissolved in Tween 80 in a 10× stock solution. To obtain the final concentration (1×; 10 mg/kg) IP7e was dissolved in saline solution (0.9% NaCl). IP7e treatment by gavage was performed once a day. Control animals received the Tween 80 dissolved saline solution (0.9% NaCl, vehicle). Histology. WAT, BAT and liver were isolated and fixed in 4% paraformaldehyde (PFA) and processed for H&E staining. For oil red O staining, liver tissues were fixed in 4% PFA overnight, incubated in 12% sucrose for 12 hours then in 18% sucrose overnight before being cryoembedded and sectioned by the UT Southwestern Histology Core Facility. For skeletal muscle fiber analysis, tissues were frozen in liquid-nitrogen precooled isopentane, and 8 μm sections were used for H&E and fiber type staining. Metabolic chambers and whole-body composition analysis. Metabolic phenotyping of WT and Nurr1-mTg mice on HFD was performed using TSE metabolic chamber analysis by the Mouse Metabolic Phenotyping Core Facility at University of Texas Southwestern Medical Center. Thirteen week old mice on HFD were placed in TSE metabolic chambers for an initial 5 days acclimation period, followed by a 4.5 days experimental period with data collection. Whole-body composition parameters were measured by magnetic resonance imaging (MRI) using a Bruker Minispec mq10 system.

[7] = Serum insulin and triglyceride levels; type: in vivo; conditions: WT-HFD-AQ vs WT-HFD mice, after 10 weeks on HFD, postprandial
Description: Plasma and tissue chemistry. Blood was collected using a 1 ml syringe coated in 0.5 M K2EDTA and serum collected by centrifugation for 20 min at 1000×g. Insulin and leptin levels were measured by ELISA. Serum triglycerides levels were measured using the Ortho Vitros 250 chemistry system. To measure triglyceride in the liver and skeletal muscle, tissue specimens were frozen immediately after isolation and pulverized in liquid nitrogen with a cell crusher. Serum and tissue triglyceride levels were measured by Mouse Metabolic Phenotyping Core Facility at University of Texas Southwestern Medical Center.

[8] = test system: ob/ob mice; test: AQ treatment of leptin deficient (ob/ob) mice: body weight, food intake; type: in vivo
Description: Animals. Animals were housed in a pathogen free barrier facility with a 12 hour light/dark cycle and maintained on standard chow (2916 Teklad Global). The Nurr1 transcript was amplified from Invitrogen library with Nurr1-specific primers. Nurr1 was cloned into a plasmid containing the human skeletal muscle actin promoter and human GH (hGH) poly(A) signal. Nurr1 transgenic mice (referred as Nurr1-mTg) were backcrossed with C57/BL6J mice for more than four generations. C57BL/6J, ob/ob and db/db mice were obtained from Jackson Laboratories. Male mice were used in all experiments. For HFD (60% fat calories; D12492, Research Diet), mice were fed from the age of 5 weeks to the indicated times. Tissues were taken in the fed state except when otherwise mentioned. Drug treatments. […] Isoxazolo-pyridinone 7e (IP7e) was purchased from Millipore and dissolved in Tween 80 in a 10× stock solution. To obtain the final concentration (1×; 10 mg/kg) IP7e was dissolved in saline solution (0.9% NaCl). IP7e treatment by gavage was performed once a day. Control animals received the Tween 80 dissolved saline solution (0.9% NaCl, vehicle).

[9] = test system: ob/ob mice; test: Liver TRIG accumulation in ob/ob mice; type: in vivo
Description: (§1) Histology. WAT, BAT and liver were isolated and fixed in 4% paraformaldehyde (PFA) and processed for H&E staining. For oil red O staining, liver tissues were fixed in 4% PFA overnight, incubated in 12% sucrose for 12 hours then in 18% sucrose overnight before being cryoembedded and sectioned by the UT Southwestern Histology Core Facility. For skeletal muscle fiber analysis, tissues were frozen in liquid-nitrogen precooled isopentane, and 8 μm sections were used for H&E and fiber type staining. Plasma and tissue chemistry. Blood was collected using a 1 ml syringe coated in 0.5 M K2EDTA and serum collected by centrifugation for 20 min at 1000×g. Insulin and leptin levels were measured by ELISA. Serum triglycerides levels were measured using the Ortho Vitros 250 chemistry system. To measure triglyceride in the liver and skeletal muscle, tissue specimens were frozen immediately after isolation and pulverized in liquid nitrogen with a cell crusher. Serum and tissue triglyceride levels were measured by Mouse Metabolic Phenotyping Core Facility at University of Texas Southwestern Medical Center.

[10] = test system: WT mice on HFD; test: Liver TRIG accumulation / hepatic steatosis in response to HFD; type: in vivo; conditions: for hepatic steatosis: WT mice on HFD
Description: as §1

[11] = test system: BV-2 microglia; conditions: cited from earlier work
[12] = test system: dopaminergic neurons in the substantia nigra pars compacta; conditions: MPTPp-treated mice, cited from earlier work
[13] = test system: NF-κB; conditions: NF-κB-GFP reporter cells; cited from earlier work
[14] = cited from earlier work
[15] = WT-HFD-AQ compared to WT-HFD mice
[16] = ob/ob mice on normal chow, AQ in drinking water, 4 weeks

## CCN(CC)Cc1cc(Nc2ccnc3cc(Cl)ccc23)ccc1O [AQ, amodiaquine]
[1]; AQ
  glucose tolerance: dramatic improvement
  insulin tolerance: dramatic improvement
[2]
  efficacy compared with chloroquine: more effective than chloroquine
[3]
  CO2 production: significant increase
  O2 consumption: significant increase
[4]; among three compounds sharing a 4-amino-7-chloroquinoline scaffold
  Nurr1 activation levels: highest activation levels
[5]
  toxic effects: no toxic effects
[6]; WT mice on HFD, AQ in drinking water ad libitum, 10 weeks
  obesity on HFD: completely prevented obesity; also recorded: confers resistance to obesity
[6]; WT mice on HFD, AQ in drinking water, 10 weeks
  body weights: comparable to mice on normal chow
[6]; WT mice on HFD, AQ vs control mice on HFD
  food consumption / food intake: no difference; also recorded: does not affect
[6]; AQ in drinking water ad libitum, 10 weeks
  weight gain: no effect
[6]; [15]
  adipocyte size in white adipose tissue: decreases
  fat mass: significant decrease; also recorded: decreases
  lean mass composition: increase
[7]
  serum insulin levels: significantly lower
  serum triglyceride levels: significantly lower
[8]; [16]
  body weight: lose weight
  weight gain: resistant to weight gain
[8]; ob/ob mice, AQ 4 weeks
  food intake (chow consumed): comparable quantities; also recorded: does not affect
[9]; ob/ob mice treated with AQ compared to non treated mice, 4 weeks
  decrease in Tg levels (liver): 66%
[9]; ob/ob mice treated with AQ, histological and biochemical analysis
  liver TRIG accumulation / hepatic steatosis: significant decrease; also recorded: recovers hepatic steatosis ob/ob mice to normal levels
[10]; AQ
  hepatic steatosis: resistant to the hepatic steatosis; also recorded: prevents hepatic steatosis
[10]; WT-HFD-AQ mice vs WT on HFD
  decrease in hepatic TRIG levels: 50%

## Clc1ccc(C(c2c[nH]c3ccccc23)c2c[nH]c3ccccc23)cc1 [C-DIM12, 1,1-bis(3′-indolyl)-1-(p-chlorophenyl) methane]
[11]
  LPS-induced expression of NF-κB-regulated genes (NOS2, IL-6, CCL2): inhibited
[12]; daily oral gavage
  neuroprotective activity: greatest neuroprotective activity
[12]
  suppressing activation of microglia and astrocytes: most potent compound
[13]
  NF-κB activation: decreased

## COCCOCc1ccc(-c2cc3onc(-c4ccccc4)c3c(=O)n2C)cc1 [IP7e, Isoxazolo-pyridinone 7e]
[1]; IP7e
  glucose handling (glucose tolerance): improvement
[4]
  Nurr1-dependent transcriptional activity: potent activator
[6]; WT mice on HFD, IP7e 10 mg/kg oral gavage once a day, 5 weeks
  obesity on HFD: prevented obesity; also recorded: confers resistance to obesity
[6]; WT mice on HFD, IP7e vs control mice on HFD
  food consumption / food intake: no difference
[6]; WT mice on HFD, IP7e vs control mice on HFD, listed as IP7
  food consumption / food intake: does not affect
[6]; IP7e 10 mg/kg oral gavage once a day, 5 weeks
  weight gain: no impact
[10]; IP7e
  hepatic steatosis: resistant to the hepatic steatosis; also recorded: prevents hepatic steatosis
[10]; WT-HFD-IP7e mice
  decrease in hepatic TRIG levels: 48%

## CCN(CCO)CCCC(C)Nc1ccnc2cc(Cl)ccc12 (stereo not shown) [hydroxy-chloroquine]
[14]; high doses, individuals with type 2 diabetes without autoimmune conditions, two clinical trials
  glucose level: lowers glucose level
[14]; patients with autoimmune inflammatory arthritis, three clinical observational studies
  risk of developing diabetes: lower risk
